The target in assay [1] is T1, Amine oxidase [flavin-containing] B (Homo sapiens, UniProt P27338).
T1 sequence (P27338 whole entry): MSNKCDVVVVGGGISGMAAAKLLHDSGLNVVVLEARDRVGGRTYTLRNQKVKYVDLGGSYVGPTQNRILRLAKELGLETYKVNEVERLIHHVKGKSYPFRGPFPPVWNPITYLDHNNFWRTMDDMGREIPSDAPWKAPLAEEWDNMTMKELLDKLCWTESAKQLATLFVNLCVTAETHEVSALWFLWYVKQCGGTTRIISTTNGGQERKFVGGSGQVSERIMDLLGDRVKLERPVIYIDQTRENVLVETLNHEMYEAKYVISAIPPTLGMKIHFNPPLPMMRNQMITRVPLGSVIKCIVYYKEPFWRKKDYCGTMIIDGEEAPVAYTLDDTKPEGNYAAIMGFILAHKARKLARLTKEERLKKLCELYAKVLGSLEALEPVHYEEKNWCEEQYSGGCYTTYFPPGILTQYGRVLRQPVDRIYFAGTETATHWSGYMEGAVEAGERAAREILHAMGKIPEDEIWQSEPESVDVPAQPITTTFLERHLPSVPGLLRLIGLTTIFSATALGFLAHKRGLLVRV
The assay can be described thus: In vitro MAO-A/B Inhibition Assay. As for the experimental part: (§1) The inhibitory activities of flavones were determined in vitro by using fluorescent probe method following the general procedure described in the literature. [Li et al., Nat. Commun., 5:3276]

The target of assay [2] is T2, Amine oxidase [flavin-containing] A (Homo sapiens, UniProt P21397).
T2 sequence (P21397 whole entry): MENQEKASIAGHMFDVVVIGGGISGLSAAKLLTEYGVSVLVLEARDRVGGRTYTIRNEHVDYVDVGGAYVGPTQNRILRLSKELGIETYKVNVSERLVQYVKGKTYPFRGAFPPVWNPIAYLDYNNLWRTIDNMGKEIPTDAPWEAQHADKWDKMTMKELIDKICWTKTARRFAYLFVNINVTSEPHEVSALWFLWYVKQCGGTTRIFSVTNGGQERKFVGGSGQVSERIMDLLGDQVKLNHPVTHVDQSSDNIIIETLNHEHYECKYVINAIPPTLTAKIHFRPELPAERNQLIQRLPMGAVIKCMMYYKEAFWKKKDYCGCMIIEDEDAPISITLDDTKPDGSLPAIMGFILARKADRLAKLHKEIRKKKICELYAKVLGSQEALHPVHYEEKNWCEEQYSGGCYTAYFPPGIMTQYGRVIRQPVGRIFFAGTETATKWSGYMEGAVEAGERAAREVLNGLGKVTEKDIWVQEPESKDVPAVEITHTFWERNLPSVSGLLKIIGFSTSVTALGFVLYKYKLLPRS
Description: In vitro MAO-A/B Inhibition Assay. As to the method: as §1

The structures appear in SMILES notation.

A word on the IC50: it is the concentration that inhibits the measured activity by half.

In assay [1], `Cc1ccc(NC(=O)CCc2cn(Cc3ccc4oc(-c5ccc(Cl)cc5)cc(=O)c4c3)nn2)cc1` [3-(1-((2-(4-chlorophenyl)-4-oxo-4H-chromen-6-yl)methyl)-1H-1,2,3-triazol-4-yl)-N-(p-tolyl)propanamide (Az2k5)] returned an IC50 of 287 µM. Take `O=c1cc(-c2ccccc2)oc2ccc(Cn3cc(CNc4ccc(Cl)cc4)nn3)cc12` [6-((4-(((4-chlorophenyl)amino)methyl)-1H-1,2,3-triazol-1-yl)methyl)-2-phenyl-4H-chromen-4-one (Az1k20)]: the IC50 in assay [2] turned out to be 334 µM; in assay [1], 176 µM.

Turning to `O=C(NCc1cn(Cc2ccc3oc(-c4ccc(Cl)cc4)cc(=O)c3c2)nn1)c1ccc(Cl)cc1` [4-chloro-N-((1-((2-(4-chlorophenyl)-4-oxo-4H-chromen-6-yl)methyl)-1H-1,2,3-triazol-4-yl)methyl)benzamide (Az2k3)], the IC50 was 372 µM in assay [2] and 47 µM in assay [1].

For the compound `O=C(CCc1cn(Cc2ccc3oc(-c4ccc(Cl)cc4)cc(=O)c3c2)nn1)Nc1ccc(F)cc1` [3-(1-((2-(4-chlorophenyl)-4-oxo-4H-chromen-6-yl)methyl)-1H-1,2,3-triazol-4-yl)-N-(4-fluorophenyl)propanamide (Az2k6)], the IC50 in assay [2] was 678 µM; in assay [1], 121 µM.

In assay [1], `Cc1ccc(NC(=O)CCCCc2cn(Cc3ccc4oc(-c5ccccc5)cc(=O)c4c3)nn2)cc1` [5-(1-((4-oxo-2-phenyl-4H-chromen-6-yl)methyl)-1H-1,2,3-triazol-4-yl)-N-(p-tolyl)pentanamide (Az1k9)] registered an IC50 of 413 µM.

The compound `O=c1cc(-c2ccc(Cl)cc2)oc2ccc(Cn3cc(COc4ccc(CNC5CC5)cc4)nn3)cc12` [2-(4-chlorophenyl)-6-((4-((4-((cyclopropylamino)methyl)phenoxy)methyl)-1H-1,2,3-triazol-1-yl)methyl)-4H-chromen-4-one (Az2k16)] returned a concentration for half-maximal inhibition (IC50) in assay [1] of 93.9 µM. `O=C(CCc1cn(Cc2ccc3oc(-c4ccccc4)cc(=O)c3c2)nn1)Nc1ccc(F)cc1` [N-(4-fluorophenyl)-3-(1-((4-oxo-2-phenyl-4H-chromen-6-yl)methyl)-1H-1,2,3-triazol-4-yl)propanamide (Az1k6)]: the half-maximal inhibitory concentration (IC50) in assay [2] came out at 738 µM; in assay [1], 134 µM. In the case of `O=c1cc(-c2ccc(Cl)cc2)oc2ccc(Cn3cc(COc4ccc(F)cc4)nn3)cc12` [2-(4-chlorophenyl)-6-((4-((4-fluorophenoxy)methyl)-1H-1,2,3-triazol-1-yl)methyl)-4H-chromen-4-one (Az2k13)], the IC50 in assay [1] turned out to be 291 µM.

Take `Cc1ccc(NC(=O)CCc2cn(Cc3ccc4oc(-c5ccccc5)cc(=O)c4c3)nn2)cc1` [3-(1-((4-oxo-2-phenyl-4H-chromen-6-yl)methyl)-1H-1,2,3-triazol-4-yl)-N-(p-tolyl)propanamide (Az1k5)]: the 50% inhibitory concentration (IC50) in assay [2] stood at 25.3 µM; in assay [1], 28.5 µM.

Regarding `O=C(CCCCc1cn(Cc2ccc3oc(-c4ccccc4)cc(=O)c3c2)nn1)Nc1ccccc1` [5-(1-((4-oxo-2-phenyl-4H-chromen-6-yl)methyl)-1H-1,2,3-triazol-4-yl)-N-phenylpentanamide (Az1k8)], the figures for the IC50 in assay [2] and in assay [1] were 327 µM and 139 µM, respectively. As to `Cc1ccc(C(=O)NCc2cn(Cc3ccc4oc(-c5ccccc5)cc(=O)c4c3)nn2)cc1` [4-methyl-N-((1-((4-oxo-2-phenyl-4H-chromen-6-yl)methyl)-1H-1,2,3-triazol-4-yl)methyl)benzamide (Az1k2)], the IC50 in assay [2] was determined as 727 µM; in assay [1], 98 µM. For `Cc1ccc(NCc2cn(Cc3ccc4oc(-c5ccc(Cl)cc5)cc(=O)c4c3)nn2)cc1` [2-(4-chlorophenyl)-6-((4-((p-tolylamino)methyl)-1H-1,2,3-triazol-1-yl)methyl)-4H-chromen-4-one (Az2k18)], in that order: 193 µM and 203 µM. In assay [1], `O=C(CCCCc1cn(Cc2ccc3oc(-c4ccc(Cl)cc4)cc(=O)c3c2)nn1)Nc1ccc(F)cc1` [5-(1-((2-(4-chlorophenyl)-4-oxo-4H-chromen-6-yl)methyl)-1H-1,2,3-triazol-4-yl)-N-(4-fluorophenyl)pentanamide (Az2k10)] showed an IC50 of 377 µM. In the case of `O=c1cc(-c2ccc(Cl)cc2)oc2ccc(Cn3cc(COc4ccccc4)nn3)cc12` [2-(4-chlorophenyl)-6-((4-(phenoxymethyl)-1H-1,2,3-triazol-1-yl)methyl)-4H-chromen-4-one (Az2k11)], the IC50 in assay [2] worked out at 346 µM; in assay [1], 336 µM. For `O=c1cc(-c2ccc(Cl)cc2)oc2ccc(Cn3cc(CNc4ccccc4)nn3)cc12` [2-(4-chlorophenyl)-6-((4-((phenylamino)methyl)-1H-1,2,3-triazol-1-yl)methyl)-4H-chromen-4-one (Az2k17)], in that order: 283 µM and 350 µM.

With `O=c1cc(-c2ccc(Cl)cc2)oc2ccc(Cn3cc(COc4cccc(O)c4)nn3)cc12` [2-(4-chlorophenyl)-6-((4-((3-hydroxyphenoxy)methyl)-1H-1,2,3-triazol-1-yl)methyl)-4H-chromen-4-one (Az2k15)], the half-inhibitory concentration (IC50) in assay [1] turned out to be 71.3 µM.

Consider `O=c1cc(-c2ccccc2)oc2ccc(Cn3nncc3COc3ccc(F)cc3)cc12` [6-((5-((4-fluorophenoxy)methyl)-1H-1,2,3-triazol-1-yl)methyl)-2-phenyl-4H-chromen-4-one (Az1k13)], for which half-maximal inhibition in assay [1] (IC50) required 322 µM.

In assay [1], `O=c1cc(-c2ccc(Cl)cc2)oc2ccc(Cn3cc(COc4ccc(Cl)cc4)nn3)cc12` [6-((4-((4-chlorophenoxy)methyl)-1H-1,2,3-triazol-1-yl)methyl)-2-(4-chlorophenyl)-4H-chromen-4-one (Az2k14)] returned an IC50 of 505 µM.

With `O=c1cc(-c2ccccc2)oc2ccc(Cn3nncc3COc3ccc(Cl)cc3)cc12` [6-((5-((4-chlorophenoxy)methyl)-1H-1,2,3-triazol-1-yl)methyl)-2-phenyl-4H-chromen-4-one (Az1k14)], in assay [1], half-maximal inhibition (IC50) was put at 527 µM. On the same count and under the same terms, next, `O=C(CCCCc1cn(Cc2ccc3oc(-c4ccc(Cl)cc4)cc(=O)c3c2)nn1)Nc1ccccc1` [5-(1-((2-(4-chlorophenyl)-4-oxo-4H-chromen-6-yl)methyl)-1H-1,2,3-triazol-4-yl)-N-phenylpentanamide (Az2k8)]: 626 µM; `O=C(CCc1cn(Cc2ccc3oc(-c4ccc(Cl)cc4)cc(=O)c3c2)nn1)Nc1ccccc1` [3-(1-((2-(4-chlorophenyl)-4-oxo-4H-chromen-6-yl)methyl)-1H-1,2,3-triazol-4-yl)-N-phenylpropanamide (Az2k4)]: 321 µM. Same read-out and setting: next, `O=C(CCCCc1cn(Cc2ccc3oc(-c4ccccc4)cc(=O)c3c2)nn1)Nc1ccc(F)cc1` [N-(4-fluorophenyl)-5-(1-((4-oxo-2-phenyl-4H-chromen-6-yl)methyl)-1H-1,2,3-triazol-4-yl)pentanamide (Az1k10)]: 151 µM; `O=c1cc(-c2ccccc2)oc2ccc(Cn3nncc3COc3ccc(CNC4CC4)cc3)cc12` [6-((5-((4-((cyclopropylamino)methyl)phenoxy)methyl)-1H-1,2,3-triazol-1-yl)methyl)-2-phenyl-4H-chromen-4-one (Az1k16)]: 97.4 µM. Same read-out and setting: next, `Cc1ccc(NC(=O)CCCCc2cn(Cc3ccc4oc(-c5ccc(Cl)cc5)cc(=O)c4c3)nn2)cc1` [5-(1-((2-(4-chlorophenyl)-4-oxo-4H-chromen-6-yl)methyl)-1H-1,2,3-triazol-4-yl)-N-(p-tolyl)pentanamide (Az2k9)]: 513 µM.

For the origin of these results see BindingDB's records for doi:10.1111/cbdd.12841 (Zhejiang University of Technology, 2017).
